This note sets out measurements from patent US11014911B2, “CDK2 inhibitors” (Pfizer Inc., priority 2019, dated 2021).

Where two headings read alike, the source gives them in different places.

Assay [1] has as its target CDK2/Cyclin E1 full length (Homo sapiens (Human), UniProt P24941). In words: CDK2/Cyclin E1 full length mobility shift assay. Format: biochemical.
The target in assay [2] is T1, GSK3β (H350L) (Homo sapiens (Human), UniProt P49841). In words: biochemical. Particulars: GSK3β Ki (nM).
Procedure: (§1) The assay was initiated with the addition of ATP, following 15 minutes pre-incubation of enzyme and inhibitor at room temperature in the reaction mixture. The reaction was stopped after 30 minutes at room temperature by the addition of 50 μL of 80 mM EDTA.
For assay [3], the target named is CDK9 (Homo sapiens (Human), UniProt P50750). In words: CDK9 biochemical assay.
For assay [4], the target named is CDK6/cyclin D3 (Homo sapiens (Human), UniProt Q00534). Nature of the assay: CDK6/Cyclin D3 mobility shift assay. The settings on record: Biochemical Assay: CDK6/cyclin D3. An excerpt: CDK6/Cyclin D3 Mobility Shift Assay
In assay [5] the target is T1, GSK3β (H350L). The settings on record: read-out: GSK3β Ki.
Procedure: as §1
The target in assay [6] is CDK1/cyclin A2 (Homo sapiens (Human), UniProt P06493). Nature of the assay: CDK1/cyclin A2 biochemical assay.
CDK1/cyclin A2, sequence (P06493 whole entry, looked up): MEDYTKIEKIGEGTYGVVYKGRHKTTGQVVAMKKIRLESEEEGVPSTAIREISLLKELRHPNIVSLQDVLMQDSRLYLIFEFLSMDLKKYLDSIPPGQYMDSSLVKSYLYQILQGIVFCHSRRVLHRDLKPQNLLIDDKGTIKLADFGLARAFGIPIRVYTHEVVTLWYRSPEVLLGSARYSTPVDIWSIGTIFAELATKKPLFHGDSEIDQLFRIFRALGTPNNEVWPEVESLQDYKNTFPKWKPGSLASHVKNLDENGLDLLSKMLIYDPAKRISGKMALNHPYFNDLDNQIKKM
CDK1/cyclin A2, sequence (P20248 whole entry partner, looked up): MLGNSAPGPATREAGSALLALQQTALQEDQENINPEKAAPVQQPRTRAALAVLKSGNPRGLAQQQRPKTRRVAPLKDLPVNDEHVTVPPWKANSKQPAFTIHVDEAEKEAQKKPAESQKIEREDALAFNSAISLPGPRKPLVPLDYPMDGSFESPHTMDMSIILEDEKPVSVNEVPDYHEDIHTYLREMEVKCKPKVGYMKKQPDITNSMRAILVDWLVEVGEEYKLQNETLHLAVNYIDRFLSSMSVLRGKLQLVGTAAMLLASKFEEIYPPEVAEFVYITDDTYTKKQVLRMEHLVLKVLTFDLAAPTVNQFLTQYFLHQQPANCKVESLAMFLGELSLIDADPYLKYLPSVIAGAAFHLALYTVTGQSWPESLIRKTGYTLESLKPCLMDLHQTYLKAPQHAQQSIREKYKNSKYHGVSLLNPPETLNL

T1 sequence (P49841 whole entry, stated change not applied): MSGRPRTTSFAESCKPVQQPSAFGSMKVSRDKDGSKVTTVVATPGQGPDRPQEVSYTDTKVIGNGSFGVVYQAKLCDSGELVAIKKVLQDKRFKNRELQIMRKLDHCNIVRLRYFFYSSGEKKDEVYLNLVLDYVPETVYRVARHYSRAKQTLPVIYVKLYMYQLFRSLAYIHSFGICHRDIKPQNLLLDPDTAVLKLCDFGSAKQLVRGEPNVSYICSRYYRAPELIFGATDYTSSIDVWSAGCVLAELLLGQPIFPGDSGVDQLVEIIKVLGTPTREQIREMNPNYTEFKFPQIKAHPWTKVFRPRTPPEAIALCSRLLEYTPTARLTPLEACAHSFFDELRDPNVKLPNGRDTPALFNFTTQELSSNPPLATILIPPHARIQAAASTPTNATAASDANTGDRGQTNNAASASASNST
CDK6/cyclin D3, sequence (Q00534 whole entry, looked up): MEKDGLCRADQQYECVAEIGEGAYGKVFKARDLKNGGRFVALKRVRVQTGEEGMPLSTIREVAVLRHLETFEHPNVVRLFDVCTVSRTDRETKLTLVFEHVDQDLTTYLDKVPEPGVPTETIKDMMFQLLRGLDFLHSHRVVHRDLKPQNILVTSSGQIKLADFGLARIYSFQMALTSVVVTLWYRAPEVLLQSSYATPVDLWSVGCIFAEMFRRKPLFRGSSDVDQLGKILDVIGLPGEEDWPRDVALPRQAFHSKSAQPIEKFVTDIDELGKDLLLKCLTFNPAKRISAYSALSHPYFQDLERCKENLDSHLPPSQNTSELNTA
CDK6/cyclin D3, sequence (P30281 whole entry partner, looked up): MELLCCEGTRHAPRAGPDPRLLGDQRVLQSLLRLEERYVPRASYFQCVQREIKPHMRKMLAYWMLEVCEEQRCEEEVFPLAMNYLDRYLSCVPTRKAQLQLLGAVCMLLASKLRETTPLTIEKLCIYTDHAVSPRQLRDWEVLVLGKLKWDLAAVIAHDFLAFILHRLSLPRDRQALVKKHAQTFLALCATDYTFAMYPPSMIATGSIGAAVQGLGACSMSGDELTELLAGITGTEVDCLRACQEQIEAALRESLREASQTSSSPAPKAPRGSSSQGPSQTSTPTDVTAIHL
CDK9, sequence (P50750 whole entry, looked up): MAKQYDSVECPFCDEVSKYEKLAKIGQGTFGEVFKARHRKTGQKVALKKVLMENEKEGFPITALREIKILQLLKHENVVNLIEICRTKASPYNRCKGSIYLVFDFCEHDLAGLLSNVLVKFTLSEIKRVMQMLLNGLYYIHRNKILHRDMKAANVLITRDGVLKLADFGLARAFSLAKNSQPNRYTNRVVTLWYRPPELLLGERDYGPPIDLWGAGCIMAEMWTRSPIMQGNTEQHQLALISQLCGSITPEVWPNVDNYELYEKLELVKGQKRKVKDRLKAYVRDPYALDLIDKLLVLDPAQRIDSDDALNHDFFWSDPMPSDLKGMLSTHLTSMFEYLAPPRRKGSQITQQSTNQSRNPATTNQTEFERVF
CDK9, sequence (O60563 whole entry partner, looked up): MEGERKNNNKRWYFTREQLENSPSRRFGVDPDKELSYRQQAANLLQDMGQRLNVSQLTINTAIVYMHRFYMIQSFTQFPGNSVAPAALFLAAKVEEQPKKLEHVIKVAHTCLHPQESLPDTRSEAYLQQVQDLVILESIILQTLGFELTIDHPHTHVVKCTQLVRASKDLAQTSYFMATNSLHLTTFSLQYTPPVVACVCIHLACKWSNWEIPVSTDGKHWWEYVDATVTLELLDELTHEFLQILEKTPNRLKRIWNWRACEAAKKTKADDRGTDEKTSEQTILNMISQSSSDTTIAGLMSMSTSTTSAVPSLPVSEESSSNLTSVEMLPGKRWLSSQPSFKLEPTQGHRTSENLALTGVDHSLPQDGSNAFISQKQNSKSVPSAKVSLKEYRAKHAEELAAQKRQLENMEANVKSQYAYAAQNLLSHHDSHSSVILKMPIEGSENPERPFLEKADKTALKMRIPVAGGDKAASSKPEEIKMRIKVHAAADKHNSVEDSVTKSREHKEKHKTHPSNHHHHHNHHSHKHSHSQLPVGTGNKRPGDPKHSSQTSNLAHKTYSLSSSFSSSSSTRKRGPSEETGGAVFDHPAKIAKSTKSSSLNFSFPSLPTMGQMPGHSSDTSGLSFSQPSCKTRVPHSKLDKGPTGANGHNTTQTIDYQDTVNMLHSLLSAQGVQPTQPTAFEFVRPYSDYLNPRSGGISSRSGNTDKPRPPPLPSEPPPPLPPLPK

With `Cc1cnc(CC(=O)Nc2cc([C@@H]3CC[C@H](OC(=O)NC4(C)CCOC4)C3)[nH]n2)o1` (single isomer, unassigned) [Example 476], the inhibition constant (Ki) came out at 0.45 nM in assay [1] and 30.9 nM in assay [2].
For `Cc1cnc(CC(=O)Nc2cc([C@H]3CC[C@@H](OC(=O)NC4(C)CCOC4)C3)[nH]n2)o1` (single isomer, unassigned) [Example 477] the same measures were 1.04 nM and 59.2 nM.
In the same order, the values of `Cc1ncc(CC(=O)Nc2cc([C@H]3CC[C@@H](OC(=O)NC4(C)CCOC4)C3)[nH]n2)s1` (single isomer, unassigned) [Example 481] are 0.53 nM and 44.6 nM.
For `Cc1ncc(CC(=O)Nc2cc([C@H]3CC[C@@H](OC(=O)NC4(C)CCOC4)C3)[nH]n2)s1` (single isomer, unassigned) [Example 482] the same measures were 0.55 nM and 36.2 nM.
Consider `COc1ccc(CC(=O)Nc2cc([C@H]3CC[C@@H](OC(=O)NC4(C)CCOC4)C3)[nH]n2)cc1` (single isomer, unassigned) [Example 484], for which the inhibition constant (Ki) in assay [1] is 0.32 nM; in assay [2], 30.3 nM.
As for `COCc1cc(C(=O)Nc2cc([C@H]3CC[C@@H](OC(=O)NC4(C)CCOC4)C3)[nH]n2)n(C)n1` (single isomer, unassigned) [Example 487], the results for the inhibition constant Ki in assay [1] and in assay [2] were 0.67 nM and more than 47.6 nM, respectively.
In the same order, the values of `CC1(NC(=O)O[C@@H]2CC[C@H](c3cc(NC(=O)Cc4cnc(C(F)(F)F)cn4)n[nH]3)C2)CCOC1` (single isomer, unassigned) [Example 493] are 0.98 nM and 157 nM.
For `CC1(NC(=O)O[C@@H]2CC[C@H](c3cc(NC(=O)Cc4cnc(C(F)(F)F)cn4)n[nH]3)C2)CCOC1` (single isomer, unassigned) [Example 494] the same measures were 1.02 nM and 53.3 nM.
`O=C(Cc1cc(F)cc(F)c1)Nc1cc([C@@H]2CC[C@H](OC(=O)NCC3CCCOC3)C2)[nH]n1` (single isomer, unassigned) [Example 515]: the figures for the inhibitory constant (Ki) in assay [1] and in assay [2] were 1.25 nM and 11.3 nM, respectively.
Turning to `CCC(CO)CNC(=O)O[C@@H]1CC[C@H](c2cc(NC(=O)Cc3cc(C)no3)n[nH]2)C1` (single isomer, unassigned) [Example 524], the Ki in assay [1] was 1.69 nM; in assay [2], 10.9 nM.
In the same order, the values of `CCC(CO)CNC(=O)O[C@@H]1CC[C@H](c2cc(NC(=O)Cc3cc(C)no3)n[nH]2)C1` (single isomer, unassigned) [Example 525] are 1.24 nM and 7.01 nM.
In the same order, the values of `CCC(CO)CNC(=O)O[C@@H]1CC[C@H](c2cc(NC(=O)Cc3cnc(C)s3)n[nH]2)C1` (single isomer, unassigned) [Example 528] are 1.11 nM and 3.6 nM.
In the same order, the values of `CCC(CO)CNC(=O)O[C@@H]1CC[C@H](c2cc(NC(=O)Cc3cnc(C)s3)n[nH]2)C1` (single isomer, unassigned) [Example 529] are 0.73 nM and 3.92 nM.
`CCC(CO)CNC(=O)O[C@@H]1CC[C@H](c2cc(NC(=O)Cc3ccc(OC)nc3)n[nH]2)C1` (single isomer, unassigned) [Example 532]: the Ki was 0.89 nM in assay [1] and 2.97 nM in assay [2].
For `CCC(CO)CNC(=O)O[C@@H]1CC[C@H](c2cc(NC(=O)Cc3ccc(OC)nc3)n[nH]2)C1` (single isomer, unassigned) [Example 533] the same measures were 0.77 nM and 1.41 nM.
For `CCC(CO)CNC(=O)O[C@@H]1CC[C@H](c2cc(NC(=O)Cc3ccnc(OC)c3)n[nH]2)C1` (single isomer, unassigned) [Example 534] the same measures were 0.85 nM and 4.63 nM.
As to `CCC(CO)CNC(=O)O[C@@H]1CC[C@H](c2cc(NC(=O)Cc3ccnc(OC)c3)n[nH]2)C1` (single isomer, unassigned) [Example 535], the inhibitory constant (Ki) in assay [1] came to 1.21 nM; in assay [2], 3.8 nM.
For `CCC(CO)CNC(=O)O[C@@H]1CC[C@H](c2cc(NC(=O)Cc3cc(F)cc(F)c3)n[nH]2)C1` (single isomer, unassigned) [Example 537], the inhibition constant Ki amounted to 1.34 nM in assay [1] and 10.7 nM in assay [2].
In the same order, the values of `Cc1cc(CC(=O)Nc2cc([C@H]3CC[C@@H](OC(=O)N4CCC4C)C3)[nH]n2)on1` (single isomer, unassigned) [Example 589] are 0.59 nM and 18.2 nM.
For `CCC1CCN1C(=O)O[C@@H]1CC[C@H](c2cc(NC(=O)Cc3cc(C)no3)n[nH]2)C1` (single isomer, unassigned) [Example 597] the same measures were 0.54 nM and 20.9 nM.
Turning to `CCC1CCN1C(=O)O[C@@H]1CC[C@H](c2cc(NC(=O)Cc3cc(C)no3)n[nH]2)C1` (single isomer, unassigned) [Example 598], the inhibitory constant (Ki) came out at 0.78 nM in assay [1] and 16.4 nM in assay [2].
In the same order, the values of `CCC1(C)CCN1C(=O)O[C@@H]1CC[C@H](c2cc(NC(=O)Cc3cc(C)no3)n[nH]2)C1` (single isomer, unassigned) [Example 603] are 0.07 nM and 13.8 nM.
For `CCC1(C)CCN1C(=O)O[C@@H]1CC[C@H](c2cc(NC(=O)Cc3cc(C)no3)n[nH]2)C1` (single isomer, unassigned) [Example 604] the same measures were 0.08 nM and 5 nM.
In the same order, the values of `COc1cnc(CC(=O)Nc2cc([C@H]3CC[C@@H](OC(=O)NC4(C)CC4)C3)[nH]n2)cn1` [Example 6, (1R,3S)-3-(3-{[(5-methoxypyrazin-2-yl)acetyl]amino}-1H-pyrazol-5-yl)cyclopentyl (1-methylcyclopropyl)carbamate] are 0.38 nM and 32.3 nM.
Turning to `COCc1cc(C(=O)Nc2cc([C@H]3CC[C@@H](OC(=O)NC4(C)CC4)C3)[nH]n2)n(C)n1` [Example 8, (1R,3S)-3-[3-({[3-(methoxymethyl)-1-methyl-1H-pyrazol-5-yl]carbonyl}amino)-1H-pyrazol-5-yl]cyclopentyl (1-methylcyclopropyl)carbamate], the inhibition constant (Ki) in assay [1] amounted to 0.5 nM; in assay [2] it was 667 nM.
In the case of `COCc1cc(C(=O)Nc2cc([C@H]3CC[C@@H](OC(=O)NC(C)C)C3)[nH]n2)n(C)n1` [Example 13, (1R,3S)-3-[3-({[3-(methoxymethyl)-1-methyl-1H-pyrazol-5-yl]carbonyl}amino)-1H-pyrazol-5-yl]cyclopentyl propan-2-ylcarbamate], the Ki in assay [3] stood at 177 nM; in assay [4] it was 465 nM; in assay [5] it was 538 nM.
On to `Cc1cc(CC(=O)Nc2cc([C@H]3CC[C@@H](OC(=O)NC4(C)CC4)C3)[nH]n2)on1` [Example 15, (1R,3S)-3-(3-{[(3-methyl-1,2-oxazol-5-yl)acetyl]amino}-1H-pyrazol-5-yl)cyclopentyl (1-methylcyclopropyl)carbamate], for which the Ki in assay [6] is 16.4 nM; in assay [1], 0.17 nM; in assay [3], 6.3 nM; in assay [4] it was 58.6 nM; in assay [5] it was 29.3 nM.
In the case of `CC[C@H](C)NC(=O)O[C@@H]1CC[C@H](c2cc(NC(=O)Cc3ccno3)n[nH]2)C1` [Example 16, (1R,3S)-3-{3-[(1,2-oxazol-5-ylacetyl)amino]-1H-pyrazol-5-yl}cyclopentyl (2S)-butan-2-ylcarbamate], the figures for the Ki in assay [1] and in assay [2] were 0.37 nM and 51.7 nM, respectively.
